Source: patent US4965280A, “Antifungal carbinols” (E. I. Du Pont de Nemours and Company, priority 1989, dated 1990)

Key:
Assay in all cases: Test E
SNTLS CHAMOMILE = type: in vivo, Matricaria indora
PERSN SPEEDWELL = type: in vivo, Veronica persica
CTCHWD BEDSTRAW = type: in vivo, Galium aparine
KOCHIA = type: in vivo, Kochia scoparia
REDROOT PIGWEED = type: in vivo, Amaranthus retroflexus
LAMBSQUARTER = type: in vivo, Chenopodium album
WILD BUCKWHEAT = type: in vivo, Polygonum convolvulus
ITALN. RYEGRASS = type: in vivo, Lolium multiflorum
GREEN FOXTAIL = type: in vivo, Setaria viridis

Measured: plant response

C=C(c1ccc(F)cc1)C(O)(Cn1cncn1)c1ccccc1F (stereo not drawn) [Example 644]
60%: REDROOT PIGWEED; POSTEMERGENCE 0500 GM/HA
40%: PERSN SPEEDWELL; POSTEMERGENCE 0250 GM/HA | LAMBSQUARTER; POSTEMERGENCE 0500 GM/HA | ITALN. RYEGRASS; POSTEMERGENCE 0500 GM/HA
50%: SNTLS CHAMOMILE; POSTEMERGENCE 0125 GM/HA | SNTLS CHAMOMILE; POSTEMERGENCE 0250 GM/HA | PERSN SPEEDWELL; PREEMERGENCE 0500 GM/HA | KOCHIA; POSTEMERGENCE 0250 GM/HA | REDROOT PIGWEED; POSTEMERGENCE 0064 GM/HA | REDROOT PIGWEED; POSTEMERGENCE 0125 GM/HA | REDROOT PIGWEED; POSTEMERGENCE 0250 GM/HA | ITALN. RYEGRASS; POSTEMERGENCE 0250 GM/HA | GREEN FOXTAIL; POSTEMERGENCE 0250 GM/HA | GREEN FOXTAIL; POSTEMERGENCE 0500 GM/HA
0%: PERSN SPEEDWELL; POSTEMERGENCE 0064 GM/HA | CTCHWD BEDSTRAW; POSTEMERGENCE 0064 GM/HA | CTCHWD BEDSTRAW; PREEMERGENCE 0500 GM/HA | KOCHIA; POSTEMERGENCE 0064 GM/HA | KOCHIA; POSTEMERGENCE 0125 GM/HA | LAMBSQUARTER; POSTEMERGENCE 0064 GM/HA | LAMBSQUARTER; POSTEMERGENCE 0125 GM/HA | WILD BUCKWHEAT; POSTEMERGENCE 0064 GM/HA | WILD BUCKWHEAT; POSTEMERGENCE 0125 GM/HA | WILD BUCKWHEAT; POSTEMERGENCE 0250 GM/HA | WILD BUCKWHEAT; POSTEMERGENCE 0500 GM/HA | ITALN. RYEGRASS; POSTEMERGENCE 0064 GM/HA | ITALN. RYEGRASS; PREEMERGENCE 0500 GM/HA
90%: SNTLS CHAMOMILE; POSTEMERGENCE 0500 GM/HA
20%: SNTLS CHAMOMILE; POSTEMERGENCE 0064 GM/HA | PERSN SPEEDWELL; POSTEMERGENCE 0125 GM/HA | LAMBSQUARTER; POSTEMERGENCE 0250 GM/HA | ITALN. RYEGRASS; POSTEMERGENCE 0125 GM/HA
70%: KOCHIA; POSTEMERGENCE 0500 GM/HA
100%: SNTLS CHAMOMILE; PREEMERGENCE 0500 GM/HA | KOCHIA; PREEMERGENCE 0500 GM/HA | GREEN FOXTAIL; PREEMERGENCE 0500 GM/HA
30%: CTCHWD BEDSTRAW; POSTEMERGENCE 0125 GM/HA | CTCHWD BEDSTRAW; POSTEMERGENCE 0250 GM/HA | CTCHWD BEDSTRAW; POSTEMERGENCE 0500 GM/HA | WILD BUCKWHEAT; PREEMERGENCE 0500 GM/HA | GREEN FOXTAIL; POSTEMERGENCE 0064 GM/HA | GREEN FOXTAIL; POSTEMERGENCE 0125 GM/HA
85%: LAMBSQUARTER; PREEMERGENCE 0500 GM/HA
80%: PERSN SPEEDWELL; POSTEMERGENCE 0500 GM/HA | REDROOT PIGWEED; PREEMERGENCE 0500 GM/HA

C=C(c1ccccc1)C(O)(Cn1cncn1)c1ccc(F)cc1F (stereo not drawn) [Example 52, 2-(2,4-Difluorophenyl)-3-phenyl-1-(1H-1,2,4-triazol-1-yl)-3-buten-2-ol]
80%: CTCHWD BEDSTRAW; POSTEMERGENCE 0125 GM/HA | ITALN. RYEGRASS; POSTEMERGENCE 0500 GM/HA
60%: PERSN SPEEDWELL; POSTEMERGENCE 0250 GM/HA
90%: PERSN SPEEDWELL; POSTEMERGENCE 0500 GM/HA | REDROOT PIGWEED; POSTEMERGENCE 0250 GM/HA | REDROOT PIGWEED; POSTEMERGENCE 0500 GM/HA
100%: SNTLS CHAMOMILE; PREEMERGENCE 0250 GM/HA | PERSN SPEEDWELL; PREEMERGENCE 0250 GM/HA | CTCHWD BEDSTRAW; POSTEMERGENCE 0500 GM/HA | CTCHWD BEDSTRAW; PREEMERGENCE 0250 GM/HA | REDROOT PIGWEED; PREEMERGENCE 0250 GM/HA | LAMBSQUARTER; PREEMERGENCE 0250 GM/HA | GREEN FOXTAIL; PREEMERGENCE 0250 GM/HA
0%: KOCHIA; POSTEMERGENCE 0064 GM/HA | KOCHIA; POSTEMERGENCE 0125 GM/HA | KOCHIA; POSTEMERGENCE 0250 GM/HA | KOCHIA; PREEMERGENCE 0250 GM/HA | REDROOT PIGWEED; POSTEMERGENCE 0064 GM/HA | LAMBSQUARTER; POSTEMERGENCE 0064 GM/HA | LAMBSQUARTER; POSTEMERGENCE 0125 GM/HA | LAMBSQUARTER; POSTEMERGENCE 0250 GM/HA | WILD BUCKWHEAT; POSTEMERGENCE 0064 GM/HA | WILD BUCKWHEAT; POSTEMERGENCE 0125 GM/HA | WILD BUCKWHEAT; POSTEMERGENCE 0250 GM/HA | ITALN. RYEGRASS; POSTEMERGENCE 0064 GM/HA | GREEN FOXTAIL; POSTEMERGENCE 0064 GM/HA | GREEN FOXTAIL; POSTEMERGENCE 0125 GM/HA
75%: GREEN FOXTAIL; POSTEMERGENCE 0500 GM/HA
20%: SNTLS CHAMOMILE; POSTEMERGENCE 0064 GM/HA | CTCHWD BEDSTRAW; POSTEMERGENCE 0064 GM/HA | WILD BUCKWHEAT; PREEMERGENCE 0250 GM/HA | ITALN. RYEGRASS; POSTEMERGENCE 0125 GM/HA
30%: PERSN SPEEDWELL; POSTEMERGENCE 0125 GM/HA | WILD BUCKWHEAT; POSTEMERGENCE 0500 GM/HA
10%: LAMBSQUARTER; POSTEMERGENCE 0500 GM/HA
40%: PERSN SPEEDWELL; POSTEMERGENCE 0064 GM/HA | GREEN FOXTAIL; POSTEMERGENCE 0250 GM/HA
70%: CTCHWD BEDSTRAW; POSTEMERGENCE 0250 GM/HA | KOCHIA; POSTEMERGENCE 0500 GM/HA | ITALN. RYEGRASS; PREEMERGENCE 0250 GM/HA
85%: SNTLS CHAMOMILE; POSTEMERGENCE 0500 GM/HA
50%: SNTLS CHAMOMILE; POSTEMERGENCE 0125 GM/HA | SNTLS CHAMOMILE; POSTEMERGENCE 0250 GM/HA | REDROOT PIGWEED; POSTEMERGENCE 0125 GM/HA | ITALN. RYEGRASS; POSTEMERGENCE 0250 GM/HA

C=C(c1ccc(F)cc1)C(O)(Cn1cncn1)c1ccc(F)cc1F (stereo not drawn) [Example 4, 2-(2,4-Difluorophenyl)-3-(4-fluorophenyl)-1-(1H-1,2,4-triazol-1-yl)-3-buten-2-ol]
20%: PERSN SPEEDWELL; POSTEMERGENCE 0064 GM/HA | CTCHWD BEDSTRAW; POSTEMERGENCE 0064 GM/HA | CTCHWD BEDSTRAW; POSTEMERGENCE 0125 GM/HA | REDROOT PIGWEED; POSTEMERGENCE 0064 GM/HA | LAMBSQUARTER; POSTEMERGENCE 0125 GM/HA | LAMBSQUARTER; POSTEMERGENCE 0250 GM/HA | GREEN FOXTAIL; POSTEMERGENCE 0125 GM/HA | GREEN FOXTAIL; POSTEMERGENCE 0250 GM/HA
50%: SNTLS CHAMOMILE; POSTEMERGENCE 0125 GM/HA
85%: SNTLS CHAMOMILE; POSTEMERGENCE 0500 GM/HA
30%: SNTLS CHAMOMILE; POSTEMERGENCE 0064 GM/HA | KOCHIA; POSTEMERGENCE 0125 GM/HA | ITALN. RYEGRASS; POSTEMERGENCE 0250 GM/HA
0%: KOCHIA; POSTEMERGENCE 0064 GM/HA | LAMBSQUARTER; POSTEMERGENCE 0064 GM/HA | WILD BUCKWHEAT; POSTEMERGENCE 0064 GM/HA | WILD BUCKWHEAT; POSTEMERGENCE 0125 GM/HA | ITALN. RYEGRASS; POSTEMERGENCE 0064 GM/HA | ITALN. RYEGRASS; POSTEMERGENCE 0125 GM/HA | GREEN FOXTAIL; POSTEMERGENCE 0064 GM/HA
40%: REDROOT PIGWEED; POSTEMERGENCE 0125 GM/HA | WILD BUCKWHEAT; POSTEMERGENCE 0250 GM/HA | WILD BUCKWHEAT; PREEMERGENCE 0500 GM/HA
90%: PERSN SPEEDWELL; PREEMERGENCE 0500 GM/HA | KOCHIA; POSTEMERGENCE 0500 GM/HA | REDROOT PIGWEED; POSTEMERGENCE 0250 GM/HA | REDROOT PIGWEED; POSTEMERGENCE 0500 GM/HA
80%: CTCHWD BEDSTRAW; POSTEMERGENCE 0250 GM/HA | ITALN. RYEGRASS; POSTEMERGENCE 0500 GM/HA | GREEN FOXTAIL; POSTEMERGENCE 0500 GM/HA
70%: SNTLS CHAMOMILE; POSTEMERGENCE 0250 GM/HA | PERSN SPEEDWELL; POSTEMERGENCE 0125 GM/HA | KOCHIA; POSTEMERGENCE 0250 GM/HA | LAMBSQUARTER; POSTEMERGENCE 0500 GM/HA | WILD BUCKWHEAT; POSTEMERGENCE 0500 GM/HA | ITALN. RYEGRASS; PREEMERGENCE 0500 GM/HA
100%: SNTLS CHAMOMILE; PREEMERGENCE 0500 GM/HA | PERSN SPEEDWELL; POSTEMERGENCE 0250 GM/HA | PERSN SPEEDWELL; POSTEMERGENCE 0500 GM/HA | CTCHWD BEDSTRAW; POSTEMERGENCE 0500 GM/HA | CTCHWD BEDSTRAW; PREEMERGENCE 0500 GM/HA | KOCHIA; PREEMERGENCE 0500 GM/HA | REDROOT PIGWEED; PREEMERGENCE 0500 GM/HA | LAMBSQUARTER; PREEMERGENCE 0500 GM/HA | GREEN FOXTAIL; PREEMERGENCE 0500 GM/HA
